Results as given in US8178506B2, “Oligomeric compounds and compositions for use in modulation of small non-coding RNAs” (Regulus Therapeutics Inc., priority 2003, dated 2012).
In the oligonucleotide strings, read from the 5' end, every base follows the letter of its sugar. An asterisk marks phosphorothioate; unmarked linkages are phosphodiester. Other units and linkages are bracketed, terminal groups are in braces. A string of capitals states the bases alone. e = 2'-O-(2-methoxyethyl) (MOE); [5mC] = 5-methylcytosine; d = 2'-deoxy (DNA)

What was measured:
Format in all cases: cell-based, human
adipocytes = test: Triglyceride accumulation assay in adipocytes
Protocol: The triglyceride accumulation assay measures the synthesis of triglyceride by adipocytes. Triglyceride accumulation is measured using the Infinity™ Triglyceride reagent kit (Sigma-Aldrich, St. Louis, Mo.). On day nine post-transfection, cells are washed and lysed at room temperature, and the triglyceride assay reagent is added. Triglyceride accumulation is measured based on the amount of glycerol liberated from triglycerides by the enzyme lipoprotein lipase. Liberated glycerol is phosphorylated by glycerol kinase, and hydrogen peroxide is generated during the oxidation of glycerol-1-phosphate to dihydroxyacetone phosphate by glycerol phosphate oxidase. Horseradish peroxidase (HRP) uses H2O2 to oxidize 4-aminoantipyrine and 3,5 dichloro-2-hydroxybenzene sulfonate to produce a red-colored dye. Dye absorbance, which is proportional to the concentration of glycerol, is measured at 515 nm using an UV spectrophotometer. Glycerol concentration is calculated from a standard curve for each assay, and data are normalized to total cellular protein as determined by a Bradford assay (Bio-Rad Laboratories, Hercules, Calif.).
An increase in triglyceride content is another well-established marker for adipocyte differentiation. The triglyceride accumulation assay measures the synthesis of triglyceride by adipocytes. Triglyceride accumulation was measured using the Infinity™ Triglyceride reagent kit (Sigma-Aldrich, St. Louis, Mo.). Human white preadipocytes (Zen-Bio Inc., Research Triangle Park, N.C.) were grown in preadipocyte media (ZenBio Inc.). One day before transfection, 96-well plates were seeded with 3000 cells/well. Cells were transfected according to standard published procedures with 250 nM oligomeric compound in LIPOFECTIN™ (Invitrogen Corporation, Carlsbad, Calif.) (Monia et al., J. Biol. Chem. 1993 268(19):14514-22). Oligomeric compounds were tested in triplicate on each 96-well plate, and the effects of TNF-α, a positive drug control that inhibits adipocyte differentiation, were also measured in triplicate. Negative and transfectant-only controls may be measured up to six times per plate. After the cells have reached confluence (approximately three days), they were exposed to differentiation media (Zen-Bio, Inc.) containing a PPAR-γ agonist, IBMX, dexamethasone, and insulin for three days. Cells were then fed adipocyte media (Zen-Bio, Inc.), which was replaced at 2 to 3 day intervals. […] Triglyceride accumulation was measured based on the amount of glycerol liberated from triglycerides by the enzyme lipoprotein lipase. Liberated glycerol is phosphorylated by glycerol kinase, and hydrogen peroxide is generated during the oxidation of glycerol-1-phosphate to dihydroxyacetone phosphate by glycerol phosphate oxidase. Horseradish peroxidase (HRP) uses H2O2 to oxidize 4-aminoantipyrine and 3,5 dichloro-2-hydroxybenzene sulfonate to produce a red-colored dye. Dye absorbance, which is proportional to the concentration of glycerol, was measured at 515 nm using an UV spectrophotometer. Glycerol concentration was calculated from a standard curve for each assay, and data were normalized to total cellular protein as determined by a Bradford assay (Bio-Rad Laboratories, Hercules, Calif.). Results are expressed as a percent±standard deviation relative to transfectant-only control.

HSL = HSL mRNA expression in adipocytes (real-time PCR)
Protocol: (§1) Expression of the four hallmark genes, HSL, aP2, Glut4, and PPARγ, is also measured in adipocytes transfected with oligomeric compounds of the invention. Cells are lysed on day nine post-transfection and total RNA is harvested. The amount of total RNA in each sample is determined using a Ribogreen Assay (Invitrogen Life Technologies, Carlsbad, Calif.).
(§2) For assaying adipocyte differentiation, expression of the four hallmark genes, HSL, aP2, Glut4, and PPARγ, as well as triglyceride (TG) accumulation and leptin secretion were measured in adipocytes transfected with the uniform 2′-MOE phosphorothioate (PS) oligomeric compounds previously described. Cells are lysed on day nine post-transfection, in a guanadinium-containing buffer and total RNA is harvested. Real-time PCR is performed (Applied Biosystems, Prism 7700) on the total RNA using the following primer/probe sets for the adipocyte differentiation hallmark genes: (aP2): forward 5′-GGTGGTGGAATGCGTCATG-3′ (SEQ ID NO: 746), reverse 5′-[…]-3′ (SEQ ID NO: 747), probe 5′-FAM-[…]-TAMRA-3′ (SEQ ID NO: 748); (Glut4): forward 5′-GGCCTCCGCAGGTTCTG-3′ (SEQ ID NO: 749), reverse 5′-[…]-3′ (SEQ ID NO: 750), probe 5′-FAM-[…]-TAMRA-3′ (SEQ ID NO: 751); (HSL): forward 5′-ACCTGCGCACAATGACACA-3′ (SEQ ID NO: 752), reverse 5′-[…]-3′ (SEQ ID NO: 753), probe 5′-FAM-[…]-TAMRA-3′ (SEQ ID NO: 754); (PPAR-γ): forward 5′-[…]-3′ (SEQ ID NO: 755), reverse 5′-[…]-3′ (SEQ ID NO: 756), probe 5′-FAM-[…]-TAMRA-3′ (SEQ ID NO: 757). The amount of total RNA in each sample is determined using a Ribogreen Assay (Molecular Probes, Eugene, Oreg.), and expression levels of the adipocyte differentiation hallmark genes were normalized to total RNA.

PPARγ = PPARγ mRNA expression in adipocytes (real-time PCR)
Protocol: as §1, §2

Glut4 = Glut4 mRNA expression in adipocytes (real-time PCR)
Protocol: as §1, §2

aP2 = aP2 mRNA expression in adipocytes (real-time PCR); conditions: for aP2 mRNA: Table 75
Protocol: as §1, §2

[1] = 300 nM, differentiating adipocytes day 10 post-induction, 24 hours after treatment
[2] = Table 17, differentiating adipocytes, control = treatment with ISIS 342673
[3] = Table 18, differentiating adipocytes, control = treatment with ISIS 342673
[4] = differentiating adipocytes transfected with oligomeric compound, Table 75
[5] = differentiating adipocytes transfected with oligomeric compound

Substance | TG (triglyceride accumulation) (adipocytes; [4]) | HSL mRNA (HSL; [4]) | PPAR gamma mRNA (PPARγ; [4]) | GLUT4 mRNA (Glut4; [4]) | aP2 mRNA (aP2; [5]) | further results
105990 (antisense AGCAAAAGATCAATCCGTTA; sugars from the 5' end e5 d10 e5, backbone and methylation of C not given here) [compound 105990] |  |  |  |  |  | Triglycerides (adipocytes; [1]): 16.6 % UTC; TG (triglyceride accumulation) (adipocytes; [2]): 28.2 percentage of control; TG (triglyceride accumulation) (adipocytes; [3]): 32.8 percentage of control; HSL mRNA (HSL; [1]): 7.4 % UTC; HSL mRNA (HSL; [2]): 49.2 percentage of control; HSL mRNA (HSL; [3]): 52.0 percentage of control; PPAR-gamma mRNA (PPARγ; [1]): 43.9 % UTC; PPAR gamma mRNA (PPARγ; [2]): 51.8 percentage of control; PPAR gamma mRNA (PPARγ; [3]): 60.1 percentage of control; GLUT4 mRNA (Glut4; [1]): 11.8 % UTC; GLUT4 mRNA (Glut4; [2]): 59.5 percentage of control; GLUT4 mRNA (Glut4; [3]): 68.1 percentage of control; AP2 mRNA (aP2; [1]): 17.9 % UTC; AP2 mRNA (aP2; [2]): 51.6 percentage of control; AP2 mRNA (aP2; [3]): 49.8 percentage of control
327969 (antisense eT*eG*eT*eG*eA*eG*eT*eT*e[5mC]*eT*eA*e[5mC]*e[5mC]*eA*eT*eT*eG*e[5mC]*e[5mC]*eA*eA*eA) [compound 327969] | 34 percentage of untreated control (UTC) | 45 percentage of untreated control (UTC) | 67 percentage of untreated control (UTC) | 36 percentage of untreated control (UTC) | 44 percentage of untreated control (UTC) | TG (triglyceride accumulation) (adipocytes; [3]): 46.0 percentage of control; HSL mRNA (HSL; [3]): 66.4 percentage of control; PPAR gamma mRNA (PPARγ; [3]): 69.2 percentage of control; GLUT4 mRNA (Glut4; [3]): 60.6 percentage of control; AP2 mRNA (aP2; [3]): 59.8 percentage of control
327970 (antisense eA*e[5mC]*eA*eA*eA*eG*eT*eT*e[5mC]*eT*eG*eT*eA*eG*eT*eG*e[5mC]*eA*e[5mC]*eT*eG*eA) [compound 327970] | 48 percentage of untreated control (UTC) | 25 percentage of untreated control (UTC) | 46 percentage of untreated control (UTC) | 27 percentage of untreated control (UTC) | 29 percentage of untreated control (UTC) | 
327972 (antisense eA*e[5mC]*eT*e[5mC]*eA*e[5mC]*e[5mC]*eG*eA*e[5mC]*eA*eG*eG*eT*eT*eG*eA*eA*eT*eG*eT*eT) [compound 327972] | 67 percentage of untreated control (UTC) | 70 percentage of untreated control (UTC) | 85 percentage of untreated control (UTC) | 75 percentage of untreated control (UTC) | 70 percentage of untreated control (UTC) | 
328089 (antisense eA*e[5mC]*eT*eG*eT*eA*eG*eG*eA*eA*eT*eA*eT*eG*eT*eT*eT*eG*eA*eT*eA) [compound 328089] | 67 percentage of untreated control (UTC) | 55 percentage of untreated control (UTC) | 79 percentage of untreated control (UTC) | 59 percentage of untreated control (UTC) | 50 percentage of untreated control (UTC) | 
328090 (antisense eA*eT*eT*eA*eA*eA*eA*eA*eG*eT*e[5mC]*e[5mC]*eT*e[5mC]*eT*eT*eG*e[5mC]*e[5mC]*e[5mC]*eA) [compound 328090] | 128 percentage of untreated control (UTC) | 81 percentage of untreated control (UTC) | 95 percentage of untreated control (UTC) | 86 percentage of untreated control (UTC) | 68 percentage of untreated control (UTC) | 
328091 (antisense eG*e[5mC]*eT*eG*e[5mC]*e[5mC]*eG*eT*eA*eT*eA*eT*eG*eT*eG*eA*eT*eG*eT*e[5mC]*eA) [compound 328091] | 48 percentage of untreated control (UTC) | 40 percentage of untreated control (UTC) | 85 percentage of untreated control (UTC) | 26 percentage of untreated control (UTC) | 46 percentage of untreated control (UTC) | 
328092 (antisense eG*eG*eT*eA*eG*eG*eT*eG*eG*eA*eA*eT*eA*e[5mC]*eT*eA*eT*eA*eA*e[5mC]*eA) [compound 328092] | 134 percentage of untreated control (UTC) | 80 percentage of untreated control (UTC) | 86 percentage of untreated control (UTC) | 78 percentage of untreated control (UTC) | 74 percentage of untreated control (UTC) | 
328093 (antisense eT*eA*eA*eA*e[5mC]*eA*eT*e[5mC]*eA*e[5mC]*eT*eG*e[5mC]*eA*eA*eG*eT*e[5mC]*eT*eT*eA) [compound 328093] |  |  |  |  |  | TG (triglyceride accumulation) (adipocytes; [5]): 59 percentage of untreated control (UTC); HSL mRNA (HSL; [5]): 89 percentage of untreated control (UTC); PPAR gamma mRNA (PPARγ; [5]): 99 percentage of untreated control (UTC); GLUT4 mRNA (Glut4; [5]): 73 percentage of untreated control (UTC); AP2 mRNA (aP2; [5]): 97 percentage of untreated control (UTC)
328094 (antisense eT*eT*eG*eT*eA*eA*eG*e[5mC]*eA*eG*eT*eT*eT*eT*eG*eT*eT*eG*eA*e[5mC]*eA) [compound 328094] | 65 percentage of untreated control (UTC) | 74 percentage of untreated control (UTC) | 94 percentage of untreated control (UTC) | 83 percentage of untreated control (UTC) | 68 percentage of untreated control (UTC) | 
328095 (antisense eT*e[5mC]*eA*e[5mC]*eA*eG*eA*eG*eA*eA*eA*eA*e[5mC]*eA*eA*e[5mC]*eT*eG*eG*eT*eA) [compound 328095] | 110 percentage of untreated control (UTC) | 83 percentage of untreated control (UTC) | 92 percentage of untreated control (UTC) | 98 percentage of untreated control (UTC) | 70 percentage of untreated control (UTC) | 
328096 (antisense e[5mC]*e[5mC]*eT*e[5mC]*eT*e[5mC]*eA*eA*eA*eG*eA*eT*eT*eT*e[5mC]*e[5mC]*eT*eG*eT*e[5mC]*eA) [compound 328096] | 74 percentage of untreated control (UTC) | 76 percentage of untreated control (UTC) | 89 percentage of untreated control (UTC) | 79 percentage of untreated control (UTC) | 71 percentage of untreated control (UTC) | 
